Data set [1] concerns Mycobacterium tuberculosis H37Rv. As to the kind of experiment: MIC determination by resazurin microtiter plate assay (REMA) with CellTiter-Blue. Type of data set: cell-based. The conditions noted are these: for MIC: M. tuberculosis H37Rv, 7 days, two-fold dilutions 100 to 1.56 μg/mL, Gompertz fit; for antimycobacterial activity (in words): dose response, Figure 6. A general note: Resazurin is reduced to fluorescent resorufin, in cell work by metabolically active cells.

The test system is the same in data set [2]. As to the kind of experiment: Compound library screen against M. tuberculosis at 100 μg/mL (CellTiter-Blue viability). It counts as cell-based. Conditions: library screen at 100 μg/mL, 7 days.
The test system of data set [3] is human monocytic THP-1 cell line. As to the kind of experiment: Cytotoxicity assay in THP-1 monocytes (CellTiter-Blue, 24 h). The conditions noted are these: for IC50: Homo sapiens; for toxicity (in words): compared to the other active compounds. Type of data set: cell-based.
Another data set has as its system THP-1 cells. Conditions: cited from earlier work.
The subject of a further data set is AML12 hepatocytes. The conditions noted are these: cited from earlier work.
The next data set deals with human monocyte cells. Conditions: cited from earlier work.
[4] abbreviates: Mycobacterium tuberculosis, H37RV, 168 h, read-out: MIC.
Where [5] appears, read: THP-1 cells, 24 h treatment, 200 to 1.56 μg/mL, read-out: IC50.

Values after ≈ are worked out from the molar mass of the structure shown. Read-outs that look alike come from different tables or passages of the source.

As a reminder, the MIC is the smallest concentration in the dilution series that meets the test's criterion for growth inhibition. Turning to `CC(C)=CCc1c(O)c(CC=C(C)C)c2c(c1O)C(=O)C[C@@H](c1ccc(O)c(O)c1)O2` [Compound C24, 6,8-diprenyleriodictyol], the minimal inhibitory concentration (MIC) in data set [1] (setting [4]) is not below 100 µg/mL.

Regarding `COC(=O)C1=C(N)Oc2cc(O)cc(O)c2C1c1ccc([N+](=O)[O-])cc1` (stereo not drawn) [Compound C16], in data set [2], the “anti-M. tuberculosis activity (in words)” value is reported as “not active”.

As usually defined, the IC50 is the concentration that inhibits the measured activity by half. In the case of `CC(C)=CCc1c(O)ccc(C(=O)/C=C/c2ccc(O)cc2)c1O` [Compound C1, Isobavachalcone], in data set [3] (setting [5]), the IC50 was 45.9 µg/mL (≈ 141 µM). For the same compound, the “cytotoxic concentration 50% (CC50)” value in the data set with THP-1 cells was 11.65 µg/mL.

Take `CC1(C)C=Cc2cc3c(cc2O1)O[C@H]1c2ccc(O)cc2OC[C@@H]31` [Compound C23, Isoneorautenol]: the minimum inhibitory concentration (MIC) was 49.22 µg/mL (≈ 153 µM) in data set [1] and 25 to 71 µg/mL (≈ 77.6 to 220 µM) in data set [1] (setting [4]). For the same compound, in data set [3] (setting [5]), the IC50 amounted to 44.3 µg/mL (≈ 137 µM). In addition, the “concentration up to which no cytotoxicity was shown” value in the data set with AML12 hepatocytes is more than 123.46 µM.

Take `CCOC(=O)C1=C(C)NC(C)=C(C(=O)OCC)C1c1cc(OC)c(OC)c(OC)c1` [Compound C40]: the MIC in data set [1] (setting [4]) is not below 100 µg/mL.

For the compound `CCOC(=O)C1=C(C)NC(C)=C(C(=O)OCC)C1c1ccc(O)c(OC)c1` [Compound C38], in data set [1] (setting [4]), the MIC is not below 100 µg/mL.

Turning to `CC#CC#CC#CCCCO` [Compound C51, Deca-4,6,8-triyn-1-ol], in data set [3] (setting [5]), the IC50 came to 170 µg/mL (≈ 1170 µM). Moreover, the “toxicity (in words)” value in data set [3] is reported as “low toxicity”.

Consider `COC(=O)C1=C(N)Oc2cc(O)cc(O)c2C1c1ccc(Cl)cc1` (stereo not drawn) [Compound C14], for which the MIC in data set [1] (setting [4]) is not below 100 µg/mL. For the same compound, the “antimycobacterial activity (in words)” value in data set [1] is listed as “weak antimycobacterial activity”. Moreover, the IC50 in data set [3] (setting [5]) amounted to 47.2 µg/mL (≈ 136 µM). Moreover, the “toxicity to human monocyte cells (in words)” value in the data set with human monocyte cells was “moderately toxic”.

As to `COc1c(C=O)c(O)cc2c1C(=O)c1ccccc1C2=O` [Compound C22, Damnacanthal], the MIC in data set [1] was 13.07 µg/mL (≈ 46.3 µM); in data set [1] (setting [4]) it was less than 20 µg/mL. The IC50 in data set [3] (setting [5]) stood at 21.4 µg/mL (≈ 75.9 µM). For the same compound, the “cytotoxic concentration 50% (CC50)” value in the data set on THP-1 cells was 8.87 µg/mL.

Take `COc1c(C)c(O)cc2c1C(=O)c1ccccc1C2=O` [Compound C25, rubiadin 1-methyl ether]: the “anti-M. tuberculosis activity (in words)” value in data set [2] was “no anti-M. tuberculosis activity”.

As a reminder, the melting point is the temperature of the solid-liquid transition. Consider `OCCCC#CC#CC#CC#CCCCO` [Compound C53, Tetradeca-4,6,8,10-tetrayne-1,14-diol], for which the melting point is 116.5 to 117 °C. This compound showed an MIC in data set [1] of 17.88 µg/mL (≈ 83.4 µM). In data set [1] (setting [4]), the MIC is less than 20 µg/mL. In addition, in data set [3] (setting [5]), the IC50 came out at 17 µg/mL (≈ 79.3 µM).

Consider `CCOC(=O)C1=C(C)N(c2ccccc2)C(C)=C(C(=O)OCC)C1c1ccc(O)cc1` [Compound C45], for which the MIC in data set [1] (setting [4]) was not below 100 µg/mL.

In the case of `COC(=O)/C(C#N)=C/C=C/c1ccccc1` [Compound C13], in data set [1] (setting [4]), the MIC was not below 100 µg/mL. Besides, the “antimycobacterial activity (in words)” value in data set [1] is on record as “weak activity”. Besides, in data set [3] (THP-1, 24 h), the IC50 stood at 95.9 µg/mL (≈ 450 µM). Also, the “toxicity to human monocyte cells (in words)” value in the data set with human monocyte cells was “moderately toxic”.

Turning to `COC(=O)C1=C(N)Oc2cc(O)c3c(C)cc(=O)oc3c2C1c1ccc([N+](=O)[O-])cc1` (stereo not drawn) [Compound C10], the values for the MIC in data set [1] and in data set [1] (setting [4]) were 29.13 µg/mL (≈ 68.6 µM) and 25 to 71 µg/mL (≈ 58.9 to 167 µM), respectively. Also, in data set [3] (setting [5]), the IC50 worked out at 64.2 µg/mL (≈ 151 µM). For the same compound, the “toxicity (in words)” value in data set [3] is “low toxicity”.

Regarding `CCOC(=O)C1=C(C)NC(C)=C(C(=O)OCC)C1c1cc(OC)c(O)c(OC)c1` [Compound C41], the MIC in data set [1] (setting [4]) was not below 100 µg/mL.

`CCOC(=O)C1=C(C)NC(C)=C(C(=O)OCC)C1c1ccc([N+](=O)[O-])cc1` [Compound C36]: in data set [1] (setting [4]), the MIC was not below 100 µg/mL.

Regarding `CCOC(=O)C1=C(C)N(c2ccccc2)C(C)=C(C(=O)OCC)C1c1cc(OC)c(O)c(OC)c1` [Compound C49], in data set [1] (setting [4]), the minimum inhibitory concentration (MIC) is not below 100 µg/mL.

Regarding `CC1(C)C=Cc2c(ccc(C(=O)/C=C/c3ccc(O)cc3)c2O)O1` [Compound C21, 4-hydroxylonchocarpine], the “anti-M. tuberculosis activity (in words)” value in data set [2] is listed as “not mycobactericidal”.

For `COC(=O)C1=C(N)Oc2cc(O)cc(O)c2C1c1ccc(Br)cc1` (stereo not drawn) [Compound C15], the MIC in data set [1] (setting [4]) was not below 100 µg/mL.
